Data taken from US11472778B2, “Hepatitis C virus NS3/4A protease inhibitors” (priority 2017, dated 2022).
Like-named read-outs stand apart in the source and are kept apart here.

Experiments:
[1] = biological target: GT1a D168A NS3/4A protease; assay type: biochemical, Hepatitis C virus; settings: Table 3; Ki D168A relative to GT1a WT
Procedure: (§1) For each assay, 2 nM of NS3/4A protease (GT1, D168A and GT3) was pre-incubated at room temperature for 1 h with increasing concentration of inhibitors in assay buffer [50 mM Tris, 5% glycerol, 10 mM DTT, 0.6 mM LDAO, and 4% dimethyl sulfoxide]. Inhibition assays were performed in nonbinding surface 96-well black half-area plates (Corning) in a reaction volume of 60 μt. […] Three independent data sets were collected for each inhibitor with each protease construct.
as §1, with “(GT1a” for “(GT1, D168A”, “D168A)” for “GT3)”, “(50” for “[50”, “sulfoxide, pH 7.5).” for “sulfoxide].”, “non-binding” for “nonbinding”, “μL.” for “μt.”
(§2) For each assay, 2 nM of NS3/4A protease (GT1a, R155K and D168A) was pre-incubated at room temperature for 1 h with increasing concentration of inhibitors in assay buffer (50 mM Tris, 5% glycerol, 10 mM DTT, 0.6 mM LDAO, and 4% dimethyl sulfoxide, pH 7.5). Inhibition assays were performed in non-binding surface 96-well black half-area plates (Corning) in a reaction volume of 60 μL. […] Three independent data sets were collected for each inhibitor with each protease construct. […] Gibbs free energy of binding was calculated using the following equation: ΔG=RTlnKi

[2] = biological target: T1, wild-type GT1a NS3/4A protease (UniProt P27958, C1185S, species not given); assay type: biochemical, Hepatitis C virus; settings: read-out: Ki (nM) GT1a WT NS3/4A Protease
T1 construct: Ki (nM) GT1a WT NS3/4A Protease
Procedure: as §1
(§3) For each assay, 2 nM of NS3/4A protease (GT1a and D168A) was pre-incubated at room temperature for 1 h with increasing concentration of inhibitors in assay buffer (50 mM Tris, 5% glycerol, 10 mM DTT, 0.6 mM LDAO, and 4% dimethyl sulfoxide, pH 7.5). Inhibition assays were performed in non-binding surface 96-well black half-area plates (Corning) in a reaction volume of 60 μL. […] Three independent data sets were collected for each inhibitor with each protease construct.
as §2

[3] = biological target: T2, GT1a D168A NS3/4A protease (UniProt P27958, C1185S/D1194A, species not given); assay type: biochemical, Hepatitis C virus; settings: read-out: Ki (nM) GT1a D168A NS3/4A Protease
T2 construct: Ki (nM) GT1a D168A NS3/4A Protease
Procedure: as §1, §3, §2

[4] = test system: HCV replicon D168V variant in Huh7 cells; experiment: microbe, parasite or virus in culture; assay type: cell-based, Hepatitis C virus; settings: for EC50: Hepatitis C virus; for Replicon EC50 (Fold change) D168V: Table 4, relative to WT replicon
Procedure: (§4) Mutations (R155K, A516T, D168A and D168V) were constructed by site-directed mutagenesis using a Con1 (genotype 1b) luciferase reporter replicon containing the H77 (genotype 1a) NS3 sequence.
Replicon RNA of each protease variant was introduced into Huh7 cells by electroporation. Replication was then assessed in the presence of increasing concentrations of protease inhibitors by measuring luciferase activity (relative light units) 96 h after electroporation. […]

[5] = test system: HCV replicon R155K variant in Huh7 cells; experiment: microbe, parasite or virus in culture; assay type: cell-based, Hepatitis C virus; settings: for EC50: Hepatitis C virus; for Replicon EC50 (Fold change) R155K: Table 4, relative to WT replicon
Procedure: as §4
(§5) Replicon RNA of each protease variant was introduced into Huh7 cells by electroporation. Replication was then assessed in the presence of increasing concentrations of protease inhibitors by measuring luciferase activity (relative light units) 96 h after electroporation.
(§6) Mutations (R155K, D168A and A156T) were constructed by site-directed mutagenesis using a Con1 (genotype 1b) luciferase reporter replicon containing the H77 (genotype 1a) NS3 sequence.^6 Replicon RNA of each protease variant was introduced into Huh7 cells by electroporation. Replication was then assessed in the presence of increasing concentrations of protease inhibitors by measuring luciferase activity (relative light units) 96 h after electroporation.

[6] = test system: HCV replicon D168A variant in Huh7 cells; experiment: microbe, parasite or virus in culture; assay type: cell-based, Hepatitis C virus; settings: for EC50: Hepatitis C virus; for Replicon EC50 (Fold change) D168A: Table 4, relative to WT replicon
Procedure: as §4, §5, §6

[7] = test system: HCV replicon A156T variant in Huh7 cells; experiment: microbe, parasite or virus in culture; assay type: cell-based, Hepatitis C virus; settings: for EC50: Hepatitis C virus; for Replicon EC50 (Fold change) A156T: Table 4, relative to WT replicon
Procedure: as §4, §5, §6

GT3a NS3/4A protease = biological target: T3, GT3a NS3/4A protease (Hepatitis C virus genotype 3a, UniProt Q81495); experiment: biochemical; settings: for Ki (Fold change) GT3a NS3/4A Protease: Table 3, Ki GT3a relative to GT1a WT
T3 construct: drug-resistant variant D168A, and GT3a NS3/4A protease; made in house; host or cells: Escherichia coli BL21(DE3)
Procedure: as §1

[8] = test system: wild-type HCV replicon in Huh7 cells; experiment: Cell-based drug susceptibility (replicon) assay, wild-type; settings: Hepatitis C virus, read-out: Replicon EC50 (nM) WT
Procedure: as §4, §5, §6

[9] = Huh-7, 96 h, read-out: Replicon EC50 (nM) D168V, Table 2, Huh7 cells, luciferase 96 h
[10] = Huh-7, read-out: Replicon EC50 (nM) D168V, Table 4
[11] = Huh-7, 96 h, read-out: Replicon EC50 (nM) R155K, Table 2, Huh7 cells, luciferase 96 h
[12] = Huh-7, read-out: Replicon EC50 (nM) R155K, Table 4
[13] = Huh-7, 96 h, read-out: Replicon EC50 (nM) D168A, Table 2, Huh7 cells, luciferase 96 h
[14] = Huh-7, read-out: Replicon EC50 (nM) D168A, Table 4
[15] = Huh-7, 96 h, read-out: Replicon EC50 (nM) A156T, Table 2, Huh7 cells, luciferase 96 h
[16] = Huh-7, read-out: Replicon EC50 (nM) A156T, Table 4
[17] = Huh-7, 96 h, Table 2, Huh7 cells, luciferase 96 h

T3 sequence (Q81495 1033-1214): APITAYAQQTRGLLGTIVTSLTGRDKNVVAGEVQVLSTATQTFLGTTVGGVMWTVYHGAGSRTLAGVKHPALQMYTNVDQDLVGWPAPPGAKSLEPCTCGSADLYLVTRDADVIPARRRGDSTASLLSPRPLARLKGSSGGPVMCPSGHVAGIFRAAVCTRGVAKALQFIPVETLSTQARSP

| SMILES | Ki (Fold change) GT1a D168A NS3/4A Protease [1] | Ki ([2]; Table 1) [nM] | Ki ([2]; Table 3) [nM] | Ki ([3]; Table 1) [nM] | Ki ([3]; Table 3) [nM] | EC50 [4, 9] [nM] | EC50 [4, 10] [nM] | Replicon EC50 (Fold change) D168V [4] | EC50 [5, 11] [nM] | EC50 [5, 12] [nM] | Replicon EC50 (Fold change) R155K [5] | EC50 [6, 13] [nM] | EC50 [6, 14] [nM] | Replicon EC50 (Fold change) D168A [6] | EC50 [7, 15] [nM] | EC50 [7, 16] [nM] | Replicon EC50 (Fold change) A156T [7] | Ki (GT3a NS3/4A protease) [nM] | EC50 [8, 17] [nM] | EC50 ([8]; Huh-7, Table 4) [nM] | other results |
| --- | --- | --- | --- | --- | --- | --- | --- | --- | --- | --- | --- | --- | --- | --- | --- | --- | --- | --- | --- | --- | --- |
| CCc1nc2ccc(OC)cc2nc1O[C@@H]1C[C@H]2C(=O)N[C@]3(C(=O)NS(=O)(=O)C4(C)CC4)C[C@H]3/C=C\CCCCC[C@H](NC(=O)OC3CCCC3)C(=O)N2C1 [Compound 23a, Cyclopentyl ((2R,6S,13aS,14aR,16aS,Z)-2-((3-ethyl-7-methoxyquinoxalin-2-yl)oxy)-14a-(((1-methylcyclopropyl)sulfonyl)carbamoyl)-5,16-dioxo-1,2,3,5,6,7,8,9,10,11,13a,14,14a,15,16,16a-hexadecahydrocyclopropa[e]pyrrolo[1,2-a][1,4]diazacyclopentadecin-6-yl)carbamate] | (40) fold | 1.37 | 1.37 | 55.2 | 55.2 ± 5.3 | 7.08 | 7.08 | (44) fold | 2.07 | 2.07 | (13) fold | 3.45 | 3.45 | (22) fold | 10.6 | 10.6 | (66) fold | 186 | 0.16 | 0.16 | Ki (Fold change) GT3a NS3/4A Protease (GT3a NS3/4A protease): (136) fold |
| COc1ccc2nc(Cl)c(O[C@@H]3C[C@H]4C(=O)N[C@]5(C(=O)NS(=O)(=O)C6(C)CC6)C[C@H]5/C=C\CCCCC[C@H](NC(=O)OC5CCCC5)C(=O)N4C3)nc2c1 [Compound 23c, Cyclopentyl ((2R,6S,13aS,14aR,16aS,Z)-2-((3-chloro-7-methoxyquinoxalin-2-yl)oxy)-14a-(((1-methylcyclopropyl)sulfonyl)carbamoyl)-5,16-dioxo-1,2,3,5,6,7,8,9,10,11,13a,14,14a,15,16,16a-hexadecahydrocyclopropa[e]pyrrolo[1,2-a][1,4]diazacyclopentadecin-6-yl)carbamate] | (58) fold | 0.44 | 0.44 | 25.7 | 25.7 ± 1.8 | 1.09 | 1.09 | (7) fold | 0.56 | 0.56 | (4) fold | 0.97 | 0.97 | (6) fold | 4.32 | 4.32 | (29) fold | 61 | 0.15 | 0.15 | Ki (Fold change) GT3a NS3/4A Protease (GT3a NS3/4A protease): (139) fold |
| COc1ccc2nc(C)c(O[C@@H]3C[C@H]4C(=O)N[C@]5(C(=O)NS(=O)(=O)C6CC6)C[C@H]5/C=C\CCCCC[C@H](NC(=O)OC5CCCC5)C(=O)N4C3)nc2c1 [Compound 22b, Cyclopentyl ((2R,6S,13aS,14aR,16aS,Z)-14a-((cyclopropylsulfonyl)carbamoyl)-2-((7-methoxy-3-methylquinoxalin-2-yl)oxy)-5,16-dioxo-1,2,3,5,6,7,8,9,10,11,13a,14,14a,15,16,16a-hexadecahydrocyclopropa[e]pyrrolo[1,2-a][1,4]diazacyclopentadecin-6-yl)carbamate] | (34) fold | 0.93 | 0.93 | 31.9 | 31.9 ± 2.5 | 4.32 | 4.32 | (39) fold | 0.89 | 0.89 | (8) fold | 2.63 | 2.63 | (24) fold | 2.88 | 2.88 | (26) fold | 147 | 0.11 | 0.11 | Ki (Fold change) GT3a NS3/4A Protease (GT3a NS3/4A protease): (158) fold |
| COc1ccc2nc(C(F)(F)F)c(O[C@@H]3C[C@H]4C(=O)N[C@]5(C(=O)NS(=O)(=O)C6CC6)C[C@H]5/C=C\CCCCC[C@H](NC(=O)OC(C)(C)C)C(=O)N4C3)nc2c1 [Compound 18d] | (12) fold | 13.3 | 13.3 | 157 | 157 ± 12 | 17.1 | 17.1 | (9) fold | 3.45 | 3.45 | (2) fold | 16.8 | 16.8 | (8) fold | 36.2 | 36.2 | (18) fold | 344 | 1.98 | 1.98 | Ki (Fold change) GT3a NS3/4A Protease (GT3a NS3/4A protease): (26) fold |
| COc1ccc2nc(C)c(O[C@@H]3C[C@H]4C(=O)N[C@]5(C(=O)NS(=O)(=O)C6(C)CC6)C[C@H]5/C=C\CCCCC[C@H](NC(=O)OC5CCCC5)C(=O)N4C3)nc2c1 [Compound 23b, Cyclopentyl ((2R,6S,13aS,14aR,16aS,Z)-2-((7-methoxy-3-methylquinoxalin-2-yl)oxy)-14a-(((1-methylcyclopropyl)sulfonyl)carbamoyl)-5,16-dioxo-1,2,3,5,6,7,8,9,10,11,13a,14,14a,15,16,16a-hexadecahydrocyclopropa[e]pyrrolo[1,2-a][1,4]diazacyclopentadecin-6-yl)carbamate] |  | 1.13 | 1.13 | 36.3 | 36.3 ± 1.8 |  |  |  | 1.09 | 1.09 |  | 2.16 | 2.16 |  | 3.99 | 3.99 |  | 121 | 0.13 | 0.13 |  |
